# In BindingDB's records for doi:10.1021/acs.jmedchem.7b01490 (Astrazeneca, 2018):
# Test: Inhibition of CHK1 in human HT29 cells assessed as abrogation of camptothecin-induced G2/M phase arrest
row,EC50,Structure (SMILES)
1,30 nM,C[C@@H]1CC[C@H](Nc2ncc(C(N)=O)c3sc(-c4ccccc4)cc23)CN1
2,10 nM,C[C@@H]1CC[C@H](Nc2ncc(C(N)=O)c3sc(-c4ccccc4)cc23)[C@H](C)N1
3,3300 nM,NC(=O)c1cnc(N[C@H]2CCCN[C@@H]2CCO)c2cc(-c3ccccc3)sc12
4,50 nM,C[C@@H]1NCCC[C@@H]1Nc1ncc(C(N)=O)c2sc(-c3ccccc3)cc12
5,8 nM,C[C@H]1NCCC[C@@H]1Nc1ncc(C(N)=O)c2sc(-c3ccccc3)cc12
6,3700 nM,NC(=O)c1cnc(N(CCO)[C@H]2CCCNC2)c2cc(-c3ccccc3)sc12
7,110 nM,CCN(c1ncc(C(N)=O)c2sc(-c3ccccc3)cc12)[C@H]1CCCNC1
8,840 nM,CN(c1ncc(C(N)=O)c2sc(-c3ccccc3)cc12)[C@H]1CCCNC1
9,340 nM,NC(=O)c1cnc(O[C@H]2CCCNC2)c2cc(-c3ccccc3)sc12
10,390 nM,NC(=O)c1cnc(N[C@H]2CCCNC2)c2cc(-c3ccccc3)oc12
11,70 nM,NC(=O)c1ccc(N[C@H]2CCCNC2)c2cc(-c3ccc(Cl)cc3)[nH]c12
12,30 nM,NC(=O)c1ccc(N[C@H]2CCCNC2)c2cc(-c3cccc(F)c3)[nH]c12
13,53 nM,NC(=O)c1ccc(N[C@H]2CCCNC2)c2cc(-c3ccccc3)[nH]c12
14,60 nM,NC(=O)c1cnc(N[C@H]2CCCNC2)c2cc(-c3cnn(Cc4ccccc4)c3)sc12
15,150 nM,Cn1cc(-c2cc3c(N[C@H]4CCCNC4)ncc(C(N)=O)c3s2)cn1
16,2300 nM,NC(=O)c1cnc(N[C@H]2CCCNC2)c2cc(-c3cn[nH]c3)sc12
17,12 nM,NC(=O)c1cnc(N[C@H]2CCCNC2)c2cc(-c3cccs3)sc12
18,10000 nM,NC(=O)c1cnc(N[C@H]2CCCNC2)c2cc(-n3ccnc3)sc12
19,10 nM,NC(=O)c1cnc(N[C@H]2CCCNC2)c2cc(-c3ccsc3)sc12
20,24 nM,NC(=O)c1cnc(N[C@H]2CCCNC2)c2cc(-c3cccc(F)c3)sc12
21,410 nM,NC(=O)c1cnc(N[C@H]2CNCC[C@@H]2O)c2cc(-c3ccccc3)sc12
22,210 nM,NC(=O)c1cnc(SC2CCCNC2)c2cc(-c3ccccc3)sc12 (stereo not given)
23,40 nM,NC(=O)c1ccc(N[C@H]2CCCNC2)c2cc(-c3ccc(F)cc3)[nH]c12
24,880 nM,CN1CCC[C@H](Nc2ncc(C(N)=O)c3sc(-c4ccccc4)cc23)C1
25,26 nM,"NC(=O)c1cnc(N[C@H]2CCCNC2)c2cc(-c3ccccc3)sc12 [(S)-2-phenyl-4-(piperidin-3-ylamino)thieno[3,2-c]pyridine-7-carboxamide]"
